These results are taken from article PMC9504419, “Multipotent Cholinesterase Inhibitors for the Treatment of Alzheimer’s Disease: Synthesis, Biological Analysis and Molecular Docking Study of Benzimidazole-Based Thiazole Derivatives” (Molecules, 2022).

Each structure is given as a SMILES string.

The test system of one assay is brain AChE. Conditions: similar degree of brain AChE inhibition; cited from earlier work.
The target in another assay is AChE (Homo sapiens, UniProt P22303). Put plainly: biochemical. It is filed as biochemical. The protocol: (§1) The inhibition of AChE and BChE was determined using a method described earlier. Briefly, the stock solutions (1 mg/mL) of test analogues were prepared using DMSO. The working solutions (1–100 μg/mL) were prepared using serial dilutions (a serial dilution means a series of diluted solutions, e.g., 0.1 mg/mL, 0.2 mg/mL and so on; the solutions contained 5% DMSO and 95% water). The various concentrations of test compounds (10 μL) were pre-incubated with sodium phosphate buffer (0.1 M; pH 8.0; 150 μL) and AChE (0.1 U/mL; 20 μL) for 15 min at 25 °C. The reaction was initiated via the addition of DTNB (1 mM; 10 μL) and […] (1 mM; 10 μL). The mixture of reaction was mixed using a cyclomixer and incubated for 10 min at 25 °C. The absorbance was measured using a microplate reader at a 410 nm wavelength against the blank reading containing 10μL DMSO instead of the test compound (the solution contained 5% DMSO and 95% water).
Sequence of AChE (P22303 32-614): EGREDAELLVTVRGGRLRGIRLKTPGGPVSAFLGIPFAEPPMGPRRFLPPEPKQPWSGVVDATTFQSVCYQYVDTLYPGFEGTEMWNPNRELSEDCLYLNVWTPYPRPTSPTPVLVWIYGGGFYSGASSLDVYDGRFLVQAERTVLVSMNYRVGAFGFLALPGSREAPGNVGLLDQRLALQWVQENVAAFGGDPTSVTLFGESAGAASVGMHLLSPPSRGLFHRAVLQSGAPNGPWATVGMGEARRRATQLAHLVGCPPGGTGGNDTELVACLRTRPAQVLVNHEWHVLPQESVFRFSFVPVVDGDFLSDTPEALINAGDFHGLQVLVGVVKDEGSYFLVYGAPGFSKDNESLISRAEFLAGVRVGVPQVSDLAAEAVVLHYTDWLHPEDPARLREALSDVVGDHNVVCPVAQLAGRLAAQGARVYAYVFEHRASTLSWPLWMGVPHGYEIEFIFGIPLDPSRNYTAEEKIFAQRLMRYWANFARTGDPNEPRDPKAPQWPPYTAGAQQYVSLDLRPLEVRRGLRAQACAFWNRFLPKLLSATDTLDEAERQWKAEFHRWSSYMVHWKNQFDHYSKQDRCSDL

(§2) % Inhibition = (Absorbance of control—Absorbance of compound)/Absorbance of control × 100

The target of a further assay is BuChE (Homo sapiens, UniProt P06276). Description: biochemical. It counts as biochemical. To be noted: read-out: IC50BuChE. As to the method:
as §1, §2

Sequence of BuChE (P06276 29-602): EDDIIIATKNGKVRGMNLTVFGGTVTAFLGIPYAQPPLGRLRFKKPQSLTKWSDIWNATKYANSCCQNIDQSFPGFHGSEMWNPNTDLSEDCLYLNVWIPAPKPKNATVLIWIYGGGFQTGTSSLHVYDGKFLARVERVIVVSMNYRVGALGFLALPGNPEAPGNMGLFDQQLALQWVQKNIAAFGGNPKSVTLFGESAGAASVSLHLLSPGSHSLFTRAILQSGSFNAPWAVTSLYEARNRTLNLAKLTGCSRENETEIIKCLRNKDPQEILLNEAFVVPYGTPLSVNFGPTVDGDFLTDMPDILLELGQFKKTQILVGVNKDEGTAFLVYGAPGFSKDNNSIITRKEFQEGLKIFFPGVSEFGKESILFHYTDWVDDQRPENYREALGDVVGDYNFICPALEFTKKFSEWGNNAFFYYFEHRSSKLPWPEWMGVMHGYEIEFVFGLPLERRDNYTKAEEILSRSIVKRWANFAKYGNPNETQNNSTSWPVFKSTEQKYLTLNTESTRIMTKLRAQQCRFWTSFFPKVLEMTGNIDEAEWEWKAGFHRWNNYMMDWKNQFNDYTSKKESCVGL

Consider `COc1ccc2c3c1O[C@H]1C[C@@H](O)C=C[C@@]31CCN(C)C2` [Galantamine], for which the “doses needed, times greater than those of Donepezil” value in the assay with brain AChE was 3–15 times.

Regarding `Cc1ccc(/C(CSc2nc3ccccc3[nH]2)=N\Nc2nc(-c3ccc(C)cc3)cs2)cc1` [compound 24, (E)-2-(2-(2-((1H-benzo[d]imidazol-2-yl)thio)-1-(p-tolyl)ethylidene)hydrazinyl)-4-(p-tolyl)thiazole], the “Selectivity Index” value at AChE (AChE and BuChE IC50 values) came to 1.28. In addition, the IC50 at AChE (read-out: IC50AChE) amounted to 11.1 ± 0.3 µM; on BuChE it was 14.2 ± 0.1 µM.
